Take `CCOC(=O)Nc1nc(C)c(-c2nc3ccccc3c(=O)n2-c2ccccc2Cl)s1`: the melting point (usually the temperature, or range, at which the solid turns liquid) was 246 to 247 °C. `O=c1c2ccc(O)cc2oc2oc3cc(O)ccc3c12` gave a melting point of over 300 °C. As to `COc1cc(-c2csc(N(CCC3CCCCC3)C(=O)c3cc4ccccc4n3CC(=O)O)n2)c(OC)cc1C`, the melting point was determined as 198 °C. In turn, `O=C(NO)C(CC(=O)N1CCOCC1)NS(=O)(=O)c1ccc(-c2ccc(Cl)cc2)cc1` (stereo not given) showed a melting point of 139 to 141 °C. `CC(=O)c1c(-c2ccsc2)sc(-c2ccncc2)c1C` showed a melting point of 98 to 100 °C. In the case of `C#CCNc1nnc(-c2ccccc2)cc1C`, the melting point turned out to be 101 °C. Regarding `COc1cc2c(cc1OC)-c1cc(=O)[nH]c(=O)n1CC2`, the melting point was 323 to 325 °C. For `CC(C)c1ccc(N2CC(=O)N(c3cccc(C(=O)O)c3)C2=O)cc1`, the melting point is 224 to 226 °C. `CCCCCc1c(-c2ccc3cc(O)ccc3c2)n(Cc2ccccc2)c2ccccc12` returned a melting point of 96 to 100 °C.

`COC(=O)CN(N)c1cc(C)cc(C)c1` registered a melting point of 56 to 58 °C.

On to `O=C1C(Cl)=C(N2CCN(c3nc4ccccc4o3)CC2)C(=O)c2nsnc21`, for which the melting point lay in the range of 233 to 235 °C. Compound `CCc1nn2ccccc2c1NC(=O)COC` displayed a melting point of 106 to 108 °C. For `COC(=O)c1cc(F)c(Cl)nc1Nc1ccc(F)cc1F`, the melting point was in the range of 137 to 139 °C. The same measure for `COC(=O)c1cc(C(=O)c2cccc(F)c2)ccc1OC`: 140 °C.

Compound `CCCCCCCCCCOC(=O)c1cc(C(=O)OCCCCCCCCCC)cc([N+](=O)[O-])c1` came in with a melting point of 48 to 50 °C.

Take `NNC(=O)CCCCC(=O)N(NC(=O)c1ccccc1O)C(=O)c1ccccc1O`: the melting point turned out to be 252 °C. With `COc1ccc2sc(C(=O)Nc3ccc(CC(=O)O)cc3)c(OC(C)C)c2c1`, the melting point was 196 °C. For the compound `Cc1cc2c(cc1C)-n1c(n[nH]c1=O)C=C(c1ccc(-n3c(C)nc4cnccc43)cc1)N2`, the melting point is over 325 °C. Consider `CC/C(=C\CCC(O)(CC)CC)c1csc(COc2ccc(CO)c(CO)c2)c1`, for which the melting point lay in the range of 73 to 74 °C. The figure for `COc1ccc(OC)c([Si](C)(C)COc2cc(C(C)(C)C)c(O)c(C(C)(C)C)c2)c1` is 103 °C; for `CCCCC(=O)C(Cc1ccc(C(=O)O)cc1)c1ccccc1` (stereo not given) it is 140 °C.

`CC(=S)c1ccc(Cc2ccc(C(C)=S)cc2)cc1` displayed a melting point of 54 to 55 °C. The figure for `CCC(O)(CC(=O)OC)c1cc2n(c(=O)c1COC)Cc1cc3ccccc3nc1-2` (stereo not given) is 163 to 166 °C; for `CC(C)(C)OC(=O)c1sc(NCc2ccccc2)c2c1CCCC2=O` it is 125 to 126 °C.

Compound `O=C(O)CCc1cccc(-c2nc(=O)c3ccc(C(F)(F)F)cc3s2)n1` had a melting point of 193 °C. Turning to `COc1ccc(-c2cccc(-c3nc(=O)c4ccccc4s3)n2)cc1`, the melting point is 200 to 201 °C. In turn, `NC(=O)c1sc(Nc2ccccc2)c2c1CCc1cn[nH]c1-2` registered a melting point of 233 to 234 °C. The same measure for `CCN(CC)C(=O)NC1C=C2c3cccc4[nH]c(Br)c(c34)CC2N(C)C1` (stereo not given): 204 to 208 °C; for `CCCCn1c(=O)c2[nH]cnc2n(CCCC)c1=S`: 137 °C; for `Nc1cccc(Oc2cccc3cccnc23)c1`: 98 to 100 °C. As for `COc1c(C)c(C)c(OC)c(C(O)CN)c1C` (stereo not given), the melting point fell in the range of 110 to 112 °C. The figure for `O=C(O)COc1ccc(-c2coc3cc(OCC(=O)O)ccc3c2=O)cc1` is 270 to 272 °C; for `CC(C)(C)c1cc(Nc2ccc(C(=O)O)cc2)cc(C(C)(C)C)c1O` it is 241 to 243 °C; for `Cc1ccc(-c2c(Cl)nc(-c3ccccc3)nc2NS(=O)(=O)c2ccc(C(C)(C)C)cc2)cc1` it is 249 to 250 °C.

As for `CC(=O)Nc1cccc2c1CCN(C)C2`, the melting point lay in the range of 138 to 139 °C.

For the origin of these results see a melting point compilation (Tetko et al.; mined from patent text by program, amines drawn as free bases though some values may be those of a salt).
